Calls of active or inactive are those of the source. The rule behind the calls is not given here.
Key:
[1] = test system: dengue virus type 3; test: Binding affinity to Dengue virus 3 NS5 methyl transferase domain by thermal shift assay
[2] = Inhibition of Dengue virus 3 NS5 2'-O-MTase activity assessed as reduction in [3H]AdoMet transfer to 7MeGpppAC4 capped RNA substrate after 30 mins by microbeta liquid scintillation counting method; design: species or system dengue virus type 3
[3] = Inhibition of West Nile virus Uganda strain B956 NS5 2'-O-MTase activity assessed as reduction in [3H]AdoMet transfer to 7MeGpppAC4 capped RNA substrate after 30 mins by microbeta liquid scintillation counting method
[4] = Inhibition of Dengue virus 3 NS5 N7-MTase activity assessed as reduction in [3H]AdoMet transfer to GpppA2'OMe-RNA74 substrate after 30 mins by microbeta liquid scintillation counting method; design: species or system dengue virus type 3
[5] = Cytotoxicity against African green monkey Vero E6 cells up to 100 uM; assay type: toxicity, cell-based; settings: chlorocebus sabaeus

Row | Compound | Activity [1] | IC50 [2] | IC50 [3] | IC50 [4] | Activity [5]
1 | Nc1ccc(C(F)(F)F)cc1N | Active | 9000 µM | – | – | –
2 | Nc1cc(Cl)ccc1NC(=O)Nc1ccc(S(=O)(=O)Oc2ccc(C(=O)O)cc2)cc1 | – | 368 µM | 190 µM | > 1000 µM | –
3 | Nc1cc(Cl)ccc1NC(=O)Nc1cccc(S(=O)(=O)Oc2ccc(C(=O)O)cc2)c1 | – | 369 µM | 120 µM | > 1000 µM | –
4 | Cc1ccc(C(=O)O)c(N)c1 | Active | 2800 µM | – | – | –
5 | Nc1cc(C(F)(F)F)ccc1NC(=O)Nc1cccc(S(=O)(=O)Nc2ccc(C(=O)O)cc2)c1 | – | 91 µM | 51 µM | 1120 µM | Non-Toxic
6 | Cc1cc(N)c(N)cc1Cl | Active | 9300 µM | – | – | –
7 | Nc1cc(C(F)(F)F)ccc1NC(=O)Nc1ccc(S(=O)(=O)Nc2ccc(C(=O)O)cc2)cc1 | – | 110 µM | 71 µM | 742 µM | Non-Toxic
8 | Nc1cc(Cl)ccc1NC(=O)Nc1cccc(S(=O)(=O)Nc2ccc(C(=O)O)cc2)c1 | – | 452 µM | 182 µM | > 1000 µM | –
9 | Nc1cc(Cl)ccc1NC(=O)Nc1ccc(S(=O)(=O)Nc2ccc(C(=O)O)cc2)cc1 | – | 435 µM | 299 µM | > 1000 µM | –

Reference: ChEMBL document CHEMBL3877284, “Discovery of novel dengue virus NS5 methyltransferase non-nucleoside inhibitors by fragment-based drug design” (Eur J Med Chem, 2017)
